Measured values taken from patent US5587442A, “Polyglycomers” (priority 1994, dated 1996).

Tests used:
[1] = target: T1, concanavalin A (Con A) (Canavalia ensiformis, UniProt P02866); experiment: Inhibition of Con A induced erythrocyte agglutination (hemagglutination inhibition assay); assay type: cell-based
T1 construct: purchased Calbiochem
Procedure: To assess the activity of our polymers, we compared the ability of the polymer to inhibit erythrocyte agglutination by Con A with that of several controls including the monovalent carbohydrate derivative methyl-α-D-glucopyranoside and the divalent-glucose substituted 7-oxanorbornene 3.
The agglutination inhibition assays were performed according to standard protocols. (Osawa, et al., Methods Enzymol. 28:323-327, 1972.) The assay was as follows: Pure lyophilized Con A was dissolved in HEPES buffer with 100 mM CaCl2, pH 8.0, and dialyzed into phosphate buffered saline (PBS, 25 mM sodium phosphate, 0.15M NaCl), pH 7.2, for the assay. Protein solution concentration was estimated from UV absorbance measurements at 280 nm.
Rabbit red blood cells were stored as a 10% suspension in Alsever's solution and washed 3× with PBS before the assay. For the assay, the cells were pelleted and resuspended in PBS with 0.5% bovine serum albumin.
Polymeric inhibitors were purified by precipitation or by gel filtration. The inhibition results obtained for compounds purified by either method were consistent. The minimum concentration of inhibitor required to inhibit four hemagglutinating doses of Con A was determined. After preincubation with the inhibitor, a 2% suspension of erythrocytes was added. The samples were examined for agglutination after 1 hour at room temperature.
Substrates were incubated with four agglutinating doses of Con A, prior to the addition of rabbit erythrocytes. The concentration of glucose moieties in solution required for inhibition was determined for each substrate within a two-fold dilution.

[2] = target: L-selectin; experiment: ELISA: inhibition of L-selectin-IgG binding to immobilized GlyCAM-1
Procedure: (§1) The affinity of compounds 8, 9 and 10 for each selectin were tested in an ELISA assay that compares their ability to inhibit binding of the selectins to immobilized GlyCAM-1. Because all of the selectins bind to GlyCAM-1 (FIG. 4) this assay provides insight into the relative affinities and specificities of the identified GlyCAM-1 component for each selectin.
(§2) The ELISAs were executed by the following protocol: An antibody to GlyCAM-1 was immobilized in a microtiter well. GlyCAM-1 was added. Selectin-IgG chimeras, which were biotinylated, were added to streptavidin-alkaline phosphatase conjugate. The binding of the selectin-IgGbiotin .cndot.strepavidin-alkaline phosphatase to GlyCAM-1 was monitored by UV. Para-nitrophenolate is produced from alkaline phosphatase catalyzed hydrolysis of paranitrophenolphosphate (Qed). The inhibitory effects of saccharides 8-10 on selectin-IgG binding to immobilized GlyCAM-1 were measured by this method.

[3] = tested on: E-selectin; experiment: ELISA: inhibition of E-selectin-IgG binding to immobilized GlyCAM-1; settings: compared among 8, 9, 10
Procedure: as §1, §2

[4] = tested on: P-selectin; experiment: ELISA: inhibition of P-selectin-IgG binding to immobilized GlyCAM-1; settings: compared among 8, 9, 10
Procedure: as §1, §2

[5] = tested on: Con A; settings: cited from earlier work
[6] = Table 2, four agglutinating doses of Con A, rabbit erythrocytes, 1 hour at room temperature, pH 7.2, within a two-fold dilution

O=C(OCCC1OC(CO)C(O)C(O)C1O)C1C2C=CC(O2)C1C(=O)OCCC1OC(CO)C(O)C(O)C1O (centres unmarked) [7-oxanorbornene 3]
Inhibiting dose compared with methyl-α-D-glucopyranoside (in words) [1]: comparable
Inhibiting Dose [carbohydrate residues] [1, 6]: 0.025 M

CCCO[C@@H]1O[C@H](CO)[C@@H](O[C@@H]2O[C@@H](C)[C@@H](O)[C@@H](O)[C@@H]2O)[C@H](O[C@@H]2O[C@H](CO)[C@H](O)[C@H](OS(=O)(=O)O)[C@H]2O)[C@H]1O [Compound 8]
IC50 for preventing L-selectin binding (in words) [2]: in the mmolar range
relative effectiveness in binding to E-selectin (in words) [3]: considerably more effective than the 6-sulfate 9 or the 3,6-disulfate 10
relative effectiveness at blocking P-selectin binding (in words) [4]: the worst at blocking binding

CCCO[C@@H]1O[C@H](CO)[C@@H](O[C@@H]2O[C@@H](C)[C@@H](O)[C@@H](O)[C@@H]2O)[C@H](O[C@@H]2O[C@H](COS(=O)(=O)O)[C@H](O)[C@H](O)[C@H]2O)[C@H]1O [Compound 9]
IC50 for preventing L-selectin binding (in words) [2]: in the mmolar range
relative effectiveness at blocking P-selectin binding (in words) [4]: slightly better

CCCO[C@@H]1O[C@H](CO)[C@@H](O[C@@H]2O[C@@H](C)[C@@H](O)[C@@H](O)[C@@H]2O)[C@H](O[C@@H]2O[C@H](COS(=O)(=O)O)[C@H](O)[C@H](OS(=O)(=O)O)[C@H]2O)[C@H]1O [Compound 10]
IC50 for preventing L-selectin binding (in words) [2]: in the mmolar range
relative binding to L-selectin (in words) ([2]; compared among 8, 9, 10): bound no more tightly to L-selectin than the 3- and 6-sulfo analogs 8 and 9
relative effectiveness at blocking P-selectin binding (in words) [4]: the most active

CO[C@H]1O[C@H](CO)[C@@H](O)[C@H](O)[C@H]1O [methyl-α-D-glucopyranoside, reference compound]
Inhibiting Dose [carbohydrate residues] [1, 6]: 0.05 M

CO[C@H]1O[C@H](CO)[C@@H](O)[C@H](O)[C@@H]1O [methyl-α-D-mannopyranoside, reference compound]
Inhibiting Dose [carbohydrate residues] ([1]; Table 3, hemagglutination inhibition assay, mono- and multivalent carbohydrate derivatives): 0.05 M

fucose
binding of fucose to Con A (in words) ([5]; Goldstein 1976): does not bind

mannose
binding to Con A (in words), calorimetric data ([5]; compared with glucose): slightly higher affinity
